In PubChem BioAssay (NCI):
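Following 48 hours of exposure in 96-well plates, responses at five concentrations were used to interpolate endpoints linearly. GI50 is the concentration that inhibits growth by half. TGI marks complete inhibition of growth.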

Experiments:
Experiment in all cases: inhibition of tumour cell growth, NCI panel, 48 h
[1] = test system: NCI-H23 lung
[2] = test system: NCI-H460 lung
[3] = test system: NCI-H522 lung
[4] = test system: NCI/ADR-RES ovarian
[5] = test system: OVCAR-3 ovarian
[6] = test system: OVCAR-4 ovarian
[7] = test system: OVCAR-5 ovarian
[8] = test system: OVCAR-8 ovarian
[9] = test system: PC-3 prostate
[10] = test system: RPMI-8226 leukemia
[11] = test system: RXF 393 renal
[12] = test system: SF-268 CNS
[13] = test system: SF-295 CNS
[14] = test system: SF-539 CNS
[15] = test system: SK-MEL-2 melanoma
[16] = test system: SK-MEL-28 melanoma
[17] = test system: SK-MEL-5 melanoma
[18] = test system: SK-OV-3 ovarian
[19] = test system: SN12C renal
[20] = test system: SNB-19 CNS
[21] = test system: SNB-75 CNS
[22] = test system: SR leukemia
[23] = test system: SW-620 colon
[24] = test system: T-47D breast
[25] = test system: TK-10 renal
[26] = test system: U251 CNS
[27] = test system: UACC-257 melanoma
[28] = test system: UACC-62 melanoma
[29] = test system: UO-31 renal

For NC(=S)N=Nc1c(O)c2ccccc2c2ccccc12, the TGI [1] was 6.1 µM, the GI50 [2] was 3.23 µM and the TGI [2] was 11.6 µM. It also gave a GI50 [3] of 3.22 µM, a TGI [3] of 9.66 µM and a GI50 [4] of 4.3 µM. For the same molecule, the TGI [4] was 27 µM, the GI50 [5] was 3.02 µM and the TGI [5] was 10.2 µM. For the same molecule, the GI50 [6] was 13 µM, the TGI [6] was 37 µM and the GI50 [7] was 2.45 µM. For the same molecule, the TGI [7] was 6.94 µM, the GI50 [8] was 4.32 µM and the TGI [8] was 22.7 µM. For the same molecule, the GI50 [9] was 9.05 µM, the TGI [9] was 66.6 µM and the GI50 [10] was 9.73 µM. The TGI [10] was > 100 µM, the GI50 [11] was 18.7 µM and the TGI [11] was 44.7 µM. The GI50 [12] was 10.2 µM, the TGI [12] was 35.7 µM and the GI50 [13] was 3.01 µM. For the same molecule, the TGI [13] was 10.2 µM, the GI50 [14] was 2.48 µM and the TGI [14] was 9.16 µM. It also gave a GI50 [15] of 14.9 µM, a TGI [15] of 33.8 µM and a GI50 [16] of 2.98 µM. It also gave a TGI [16] of 10 µM, a GI50 [17] of 1.41 µM and a TGI [17] of 2.9 µM. For the same molecule, the GI50 [18] was 21.5 µM, the TGI [18] was 54.2 µM and the GI50 [19] was 1.73 µM. It also gave a TGI [19] of 3.47 µM, a GI50 [20] of 3.12 µM and a TGI [20] of 12.6 µM. It also gave a GI50 [21] of 1.34 µM, a TGI [21] of 3.24 µM and a GI50 [22] of 9.64 µM. For the same molecule, the TGI [22] was 35.8 µM, the GI50 [23] was 3.44 µM and the TGI [23] was 26.6 µM. The GI50 [24] was 14 µM, the TGI [24] was > 100 µM and the GI50 [25] was 44.6 µM. For the same molecule, the TGI [25] was > 94.1 µM, the GI50 [26] was 3.07 µM and the TGI [26] was 11.4 µM. It also gave a GI50 [27] of 1.72 µM, a TGI [27] of 3.31 µM and a GI50 [28] of 1.69 µM. The TGI [28] was 3.19 µM, the GI50 [29] was 3.26 µM and the TGI [29] was > 76.1 µM.
